Test results as given in patent US8829007B2 (priority 2009, dated 2014).
Where two headings read alike, the source gives them in different places.

Legend:
[1] = system: A/PR/8/34 influenza virus; test: microbe, parasite or virus in culture; format: cell-based
[2] = system: influenza A virus (A/PR/8/34); test: microbe, parasite or virus in culture; format: cell-based
[3] = Influenza A virus, PR/8, MDCK, MDCK cells infected with A/PR/8/34, bDNA viral RNA, read-out: EC50 (mean all)
[4] = Influenza A virus, PR/8, MDCK, MDCK cells infected with A/PR/8/34, cell protection (CPE), read-out: IC50 (mean all)
[5] = Influenza A virus, PR/8, MDCK, mean all, A/PR/8/34 influenza virus in MDCK cells, bDNA assay, read-out: EC50
[6] = Influenza A virus, PR/8, MDCK, mean all, A/PR/8/34 infected MDCK cells, CPE assay, read-out: IC50
[7] = Influenza A virus, PR/8, MDCK, MDCK cells infected with A/PR/8/34, replication of influenza virus (viral RNA, bDNA), class symbols, read-out: EC50 (mean all)
[8] = Influenza A virus, PR/8, MDCK, MDCK cells infected with A/PR/8/34, survival of infected cells, class symbols, read-out: IC50 (mean all)
[9] = […], replication of influenza virus (viral RNA, bDNA), class symbols, read-out: EC50 (mean all)
[10] = mean all, bDNA viral RNA in MDCK cells infected with A/PR/8/34, read-out: EC50
[11] = mean all, MDCK cells infected with A/PR/8/34, cell protection (CPE), read-out: IC50

## O[C@@H]1CCCC[C@H]1Nc1nc(-c2c[nH]c3ncccc23)ncc1F (relative stereo) [Compound 207, Trans-2-[[5-fluoro-2-(1H-pyrrolo[2,3-b]pyridin-3-yl)pyrimidin-4-yl]amino]cyclohexanol]
[1]; [3]
  EC50: < 5 µM
[2]; [4]
  IC50: < 5 µM

## O[C@@H]1CCCC[C@@H]1Nc1nc(-c2c[nH]c3ncccc23)ncc1F (relative stereo) [Compound 277, Cis-2-[[5-fluoro-2-(1H-pyrrolo[2,3-b]pyridin-3-yl)pyrimidin-4-yl]amino]cyclohexanol]
[1]; [3]
  EC50: < 5 µM
[2]; [4]
  IC50: < 5 µM

## CC(=O)N[C@H]1CCC[C@@H](Nc2nc(-c3c[nH]c4ncc(Cl)cc34)ncc2F)C1 (relative stereo) [Compound 452, N-[cis-3-[[2-(5-chloro-1H-pyrrolo[2,3-b]pyridin-3-yl)-5-fluoropyrimidin-4-yl]amino]cyclohexyl]acetamide]
[1]; [5]
  EC50: < 5 µM
[2]; [6]
  IC50: < 5 µM

## CNC(=O)N[C@H]1CCC[C@@H](Nc2nc(-c3c[nH]c4ncc(Cl)cc34)ncc2F)C1 (relative stereo) [Compound 455, 1-[cis-3-[[2-(5-chloro-1H-pyrrolo[2,3-b]pyridin-3-yl)-5-fluoro-pyrimidin-4-yl]amino]cyclohexyl]-3-methyl-urea]
[1]; [5]
  EC50: < 5 µM
[2]; [6]
  IC50: < 5 µM

## CN(C)C(=O)N[C@H]1CCC[C@@H](Nc2nc(-c3c[nH]c4ncc(Cl)cc34)ncc2F)C1 (relative stereo) [Compound 456, 3-[cis-3-[[2-(5-chloro-1H-pyrrolo[2,3-b]pyridin-3-yl)-5-fluoro-pyrimidin-4-yl]amino]cyclohexyl]-1,1-dimethyl-urea]
[1]; [5]
  EC50: < 5 µM
[2]; [6]
  IC50: < 5 µM

## CC(=O)N[C@H]1CCC[C@H](Nc2nc(-c3c[nH]c4ncc(Cl)cc34)ncc2F)C1.CC(N)=O (relative stereo) [Compound 457, N-[trans-3-[[2-(5-chloro-1H-pyrrolo[2,3-b]pyridin-3-yl)-5-fluoro-pyrimidin-4-yl]amino]cyclohexyl]acetamide acetamide]
[1]; [5]
  EC50: < 5 µM
[2]; [6]
  IC50: < 5 µM

## CNC(=O)N[C@H]1CCC[C@H](Nc2nc(-c3c[nH]c4ncc(Cl)cc34)ncc2F)C1 (relative stereo) [Compound 458, 1-[trans-3-[[2-(5-chloro-1H-pyrrolo[2,3-b]pyridin-3-yl)-5-fluoro-pyrimidin-4-yl]amino]cyclohexyl]-3-methyl-urea]
[1]; [5]
  EC50: < 5 µM
[2]; [6]
  IC50: < 5 µM

## CN(C)C(=O)N[C@H]1CCC[C@H](Nc2nc(-c3c[nH]c4ncc(Cl)cc34)ncc2F)C1 (relative stereo) [Compound 459, 3-[trans-3-[[2-(5-chloro-1H-pyrrolo[2,3-b]pyridin-3-yl)-5-fluoro-pyrimidin-4-yl]amino]cyclohexyl]-1,1-dimethyl-urea]
[1]; [5]
  EC50: < 5 µM
[2]; [6]
  IC50: < 5 µM

## CNC(=O)[C@@H]1CCCC[C@@H]1Nc1nc(-c2c[nH]c3ncc(Cl)cc23)ncc1F (relative stereo) [Compound 539, Cis-2-(2-(5-chloro-1H-pyrrolo[2,3-b]pyridin-3-yl)-5-fluoropyrimidin-4-ylamino)-N-methylcyclohexanecarboxamide]
[1]; [7]
  EC50: < 5 µM
[2]; [8]
  IC50: 5 to 20 µM

## CN(C)C(=O)[C@@H]1CCCC[C@@H]1Nc1nc(-c2c[nH]c3ncc(Cl)cc23)ncc1F (relative stereo) [Compound 543, Cis-2-(2-(5-chloro-1H-pyrrolo[2,3-b]pyridin-3-yl)-5-fluoropyrimidin-4-ylamino)-N,N-dimethylcyclohexanecarboxamide]
[1]; [7]
  EC50: < 5 µM
[2]; [8]
  IC50: < 5 µM

## NC(=O)[C@@H]1CCCC[C@@H]1Nc1nc(-c2c[nH]c3ncc(Cl)cc23)ncc1F (relative stereo) [Compound 544, cis-2-(2-(5-chloro-1H-pyrrolo[2,3-b]pyridin-3-yl)-5-fluoropyrimidin-4-ylamino)cyclohexanecarboxamide]
[1]; [7]
  EC50: < 5 µM
[2]; [8]
  IC50: > 20 µM

## O=C(O)[C@@H]1CCCC[C@@H]1Nc1nc(-c2c[nH]c3ncc(Cl)cc23)ncc1F (relative stereo) [Compound 554]
[1]; [9]
  EC50: 5 to 10 µM
[2]; read-out: IC50 (mean all)
  IC50: > 10 µM

## COCC(=O)N[C@@H]1CCCC[C@H]1CNc1nc(-c2c[nH]c3ncc(Cl)cc23)ncc1F (relative stereo) [Compound 556, N-(trans-2-((2-(5-chloro-1H-pyrrolo[2,3-b]pyridin-3-yl)-5-fluoropyrimidin-4-ylamino)methyl)cyclohexyl)-2-methoxyethanamide]
[1]; [7]
  EC50: < 5 µM
[2]; [8]
  IC50: > 10 µM

## O=C(O)[C@@H]1CCC[C@@H]1Nc1nc(-c2c[nH]c3ncc(Cl)cc23)ncc1F (relative stereo) [Compound 558, Cis-2-(2-(5-chloro-1H-pyrrolo[2,3-b]pyridin-3-yl)-5-fluoropyrimidin-4-ylamino)cyclopentanecarboxylic acid]
[1]; [7]
  EC50: < 5 µM
[2]; [8]
  IC50: < 5 µM

## O=C(O)[C@@H]1CCCC[C@@H]1Nc1nc(-c2c[nH]c3ncc(Cl)cc23)ncc1F (relative stereo) [Compound 559, Cis-2-(2-(5-chloro-1H-pyrrolo[2,3-b]pyridin-3-yl)-5-fluoropyrimidin-4-ylamino)cyclohexanecarboxylic acid]
[1]; [7]
  EC50: < 5 µM
[2]; [8]
  IC50: < 5 µM

## CN(C)C(=O)N[C@@H]1CCCC[C@H]1CNc1nc(-c2c[nH]c3ncc(Cl)cc23)ncc1F (relative stereo) [Compound 564, 3-(trans-2-((2-(5-chloro-1H-pyrrolo[2,3-b]pyridin-3-yl)-5-fluoropyrimidin-4-ylamino)methyl)cyclohexyl)-1,1-dimethylurea]
[1]; [7]
  EC50: < 5 µM
[2]; [8]
  IC50: > 10 µM

## CC[C@@]1(C(=O)O)CCCC[C@H]1Nc1nc(-c2c[nH]c3ncc(Cl)cc23)ncc1F (relative stereo) [Compound 586, trans-2-(2-(5-chloro-1H-pyrrolo[2,3-b]pyridin-3-yl)-5-fluoropyrimidin-4-ylamino)-1-ethylcyclohexanecarboxylic acid]
[1]; [9]
  EC50: < 5 µM
[2]; read-out: IC50 (mean all)
  IC50: < 5 µM

## CC1(O)CCCCC1Nc1nc(-c2c[nH]c3ncc(Cl)cc23)ncc1F (single isomer, unassigned) [Compound 563, 2-(2-(5-chloro-1H-pyrrolo[2,3-b]pyridin-3-yl)-5-fluoropyrimidin-4-ylamino)-1-methylcyclohexanol]
[1]; [7]
  EC50: < 5 µM
[2]; [8]
  IC50: < 5 µM

## CCNC(=O)OC1CCCC(Nc2nc(-c3c[nH]c4ncc(Cl)cc34)ncc2F)C1 (single isomer, unassigned) [Compound 609]
[1]; bDNA assay, A/PR/8/34 influenza virus replication in MDCK cells, class symbols, read-out: EC50 (mean all)
  EC50: < 5 µM
[2]; CPE assay, A/PR/8/34 infected MDCK cells, class symbols, read-out: IC50 (mean all)
  IC50: < 5 µM

## CCC1(O)CCCC(Nc2nc(-c3c[nH]c4ncc(Cl)cc34)ncc2F)C1 (single isomer, unassigned) [Compound 709]
[1]; [10]
  EC50: < 5 µM
[2]; [11]
  IC50: < 5 µM

## CCC1(O)CCCC(Nc2nc(-c3c[nH]c4ncc(Cl)cc34)ncc2F)C1 (single isomer, unassigned) [Compound 710]
[1]; [10]
  EC50: < 5 µM
[2]; [11]
  IC50: < 5 µM

## CCNC(=O)OC1(C)CCCC(Nc2nc(-c3c[nH]c4ncc(Cl)cc34)ncc2F)C1 (single isomer, unassigned) [Compound 722]
[1]; [10]
  EC50: < 5 µM
[2]; [11]
  IC50: < 5 µM

## O=C(NC1CC2CC(Nc3nc(-c4c[nH]c5ncc(F)cc45)ncc3F)C1C2)N1CCCC1 (single isomer, unassigned) [Compound 1045, N-[6-[[5-fluoro-2-(5-fluoro-1H-pyrrolo[2,3-b]pyridin-3-yl)pyrimidin-4-yl]amino]norbornan-2-yl]pyrrolidine-1-carboxamide]
[1]; Influenza A virus, PR/8, 30 h, HA(−) 30 hr, A/PR/8, bDNA, mean all, read-out: Cell Influenza HA(−) 30 hr A/PR/8 bDNA:bDNA EC50 uM(Mean (All))
  EC50: < 5 µM
[2]; Influenza A virus, PR/8, MDCK, MDCK cells, A/PR/8/34, ATP readout, mean all, read-out: Cell Flu, MDCK protection, ATP (All: IC50: uM)(Mean (All))
  IC50: < 5 µM

## C[C@]1(C(=O)O)CCCC[C@@H]1Nc1nc(-c2c[nH]c3ncc(Cl)cc23)ncc1F (stereo in doubt) [Compound 643, Trans-2-[[2-(5-chloro-1H-pyrrolo[2,3-b]pyridin-3-yl)-5-fluoro-pyrimidin-4-yl]amino]-1-methyl-cyclohexanecarboxylic acid]
[1]; Influenza A virus, PR/8, MDCK, bDNA assay, A/PR/8/34 influenza virus replication in MDCK cells, class symbols, read-out: EC50 (mean all)
  EC50: < 5 µM
[2]; Influenza A virus, PR/8, MDCK, CPE assay, A/PR/8/34 infected MDCK cells, class symbols, read-out: IC50 (mean all)
  IC50: < 5 µM

## OC1CCCC1Nc1nc(-c2c[nH]c3ncc(Cl)cc23)ncc1F (stereo not drawn) [Compound 14, 2-(2-(5-chloro-1H-pyrrolo[2,3-b]pyridin-3-yl)-5-fluoropyrimidin-4-ylamino)cyclopentanol]
[1]; [3]
  EC50: < 5 µM
[2]; [4]
  IC50: 5 to 20 µM

## CC(C)(C)OC(=O)N1CCC[C@H](CNc2nc(-c3c[nH]c4ncc(Cl)cc34)ncc2F)C1 [Compound 15, (R)-tert-butyl 3-((2-(5-chloro-1H-pyrrolo[2,3-b]pyridin-3-yl)-5-fluoropyrimidin-4-ylamino)methyl)piperidine-1-carboxylate]
[1]; [3]
  EC50: < 5 µM
[2]; [4]
  IC50: 5 to 20 µM

## C=CCOC(=O)N1CCC[C@@H](CNc2nc(-c3c[nH]c4ncc(Cl)cc34)ncc2F)C1 [Compound 17, (S)-allyl 3-((2-(5-chloro-1H-pyrrolo[2,3-b]pyridin-3-yl)-5-fluoropyrimidin-4-ylamino)methyl)piperidine-1-carboxylate]
[1]; [3]
  EC50: < 5 µM
[2]; [4]
  IC50: 5 to 20 µM
